Values joined by “and” are separate entries in the source; they are usually repeats but may differ in a detail not shown here. Equal values may be shown once.
Tests used:
[1] = Three-component miscibility test (mixing in a vial at room temperature and shaking, visual clarity)
Excerpt: The term “miscible” and its variations (“miscibility”, “compatibility”, and the like) are used herein as a synonym for “soluble”, i.e., a mixture of the materials by themselves form a “true” solution, in which one material is molecularly dispersed in the other, or in which one material is dispersed as droplets which have a longest dimension of less than 200 nm, such that the mixture is optically clear. […] A fully miscible alkyl ketal ester is soluble in another material, such as water, at all proportions from 99:1 to 1:99. A partially miscible alkyl ketal ester is immiscible in another material in proportions from greater than 30 parts of the alkyl ketal ester in 70 parts or less of the other material and miscible in other combinations. A sparingly miscible alkyl ketal ester is immiscible in another material or miscible in another material to the extent of less than 10 parts in 90 parts of the other material. […] Unless stated otherwise, miscibility is assessed at 25° C. […] By “macroscopically uniform,” it is meant that the formulation is uniform when viewed at a length scale of at least 10 micrometers.
In these tests, clear mixtures as observed without magnification from a distance of, e.g., 0.3 meters are considered to be “miscible,” whereas cloudy or phase separated mixtures are considered to be “immiscible.” […]
Three-component mixtures of ethyl-LGK, ethanol, and avobenzone were prepared by mixing the materials at various proportions at room temperature in a vial and shaking. […]
Three-component mixtures of ethyl-LGK, water, and oxybenzone were prepared by mixing the materials at various proportions at room temperature in a vial and shaking. […]
Three-component mixtures of Et-LGK, water, and phenoxyethanol were prepared by mixing the materials at various proportions at room temperature in a vial and shaking.
Three-component mixtures of N,N-diethyl-m-toluamide (DEET), ethyl-LGK, and water were prepared by mixing the materials at various proportions at room temperature in a vial and shaking.

[2] = Miscibility of alkyl ketal esters with water and organic compounds; type: physicochemical; settings: for dissolves or is miscible with organic compounds to the extent of: organic compounds as listed in the block (alcohols, esters, oils, solvents), 80 parts of the ketal
Protocol: Unless stated otherwise, miscibility is assessed at 25° C.

[3] = Solubility of active agents in neat alkyl ketal esters (dissolution, storage at room temperature); settings: for % solids in Bu-LGK that did not (completely) dissolve / % solids dissolved in Bu-LGK with heat, no precipitation / % solids dissolved in Bu-LGK at room temperature, no precipitation: solvent Bu-LGK; for % solids in Bu-LGK that did not (completely) dissolve: dispersion or partially dissolved; for % solids dissolved in Bu-LGK with heat, no precipitation: dissolved at 50-80° C., still soluble after 24 hours at room temperature where stated; for % solids dissolved in Et-LPK with heat, no precipitation: dissolved at 50-80° C. or with heat, still soluble after storage at room temperature (24 hours to 5 days); for % solids dissolved in Bu-LGK at room temperature, no precipitation: still soluble after 24 hours / 1 day at room temperature; for % solids dissolved in Et-LPK at room temperature, no precipitation: still soluble after 24 hours / 1 day at room temperature where stated; for solubility in many alkyl ketal esters: such as ethyl-LGK and ethyl-LPK
[4] = Solubility of oxidation dye intermediates in hair dye bases (saturated solutions, UV-Vis); settings: 27° C., 10 minutes
[5] = Clarity of model hand sanitizer (isopropyl myristate / water / ethanol / ethyl-LGK); type: physicochemical
Excerpt: Thus, a formulation with 30 parts isopropyl myristate, 10 parts water, and 60 parts ethanol was cloudy. […] In either case, the potential for dryness increases due to reduction in emollient or increase in ethanol. […] This formulation retained the balance of emollient and ethanol, while still providing hydration through the presence of water. Alternatively, a portion of the ethanol can be replaced with Et-LGK without sacrificing clarity, even at higher water levels. […] This reduced ethanol formulation was less drying.

[6] = solvent Et-LGK, still soluble after storage at room temperature (24 hours to 5 days) where stated

COC(=O)CCC1(C)OCC(CO)O1 (stereo not drawn) [methyl-LGK]
Result (miscibility of ketal with water) ([1]; 50.0% ketal / 50.0% water, no oxybenzone): Miscible | miscible with water ([2]; 25° C. unless stated otherwise): in all proportions

CCCOC(=O)c1ccc(O)cc1 [propyl paraben, Propyl paraben]
level of miscibility in Et-LGK by itself [1]: ≤ 24% | level at which by itself immiscible in water ([1]; no ketal): < 1 % by weight

COC1=C(OC)C(=O)C(C/C=C(\C)CC/C=C(\C)CC/C=C(\C)CC/C=C(\C)CC/C=C(\C)CC/C=C(\C)CC/C=C(\C)CC/C=C(\C)CC/C=C(\C)CCC=C(C)C)=C(C)C1=O [Coenzyme Q10, Ubiquinone]
% solids in Bu-LGK that did not (completely) dissolve ([3]; insoluble): 5% | % solids in Et-LGK that did not (completely) dissolve or precipitated at room temperature ([3]; solvent Et-LGK, insoluble, partially dissolved or precipitated on room temperature storage): 3.7%

COc1cc(CCC(=O)CC(=O)CCc2ccc(O)c(OC)c2)ccc1O [Tetrahydrocurcuminoids, tetrahydrodiferuloylmethane]
% solids dissolved in Bu-LGK with heat, no precipitation [3]: 5% | % solids dissolved in Et-LGK at room temperature, no precipitation [3, 6]: 20% | % solids dissolved in Et-LPK with heat, no precipitation ([3]; solvent Et-LPK): 5%

OCCOc1ccccc1 [phenoxyethanol, Phenoxyethanol]
amount dissolved / solubilized by Et-LGK/water cosolvent mixtures [1]: ~50 % by weight

COc1cc2c(cc1O)CCC(C)(C)O2 [Dimethylmethoxy Chromanol]
% solids dissolved in Bu-LGK at room temperature, no precipitation [3]: 2.5% | % solids dissolved in Et-LGK at room temperature, no precipitation [3, 6]: 2.5% | % solids dissolved in Et-LPK at room temperature, no precipitation ([3]; solvent Et-LPK): 2.5%

O=C(CCCCc1ccc2c(c1)OCO2)N1CCCCC1 [Tetrahydropiperine]
% solids dissolved in Bu-LGK at room temperature, no precipitation [3]: 20% | % solids dissolved in Et-LGK at room temperature, no precipitation [3, 6]: 20% | % solids dissolved in Et-LPK at room temperature, no precipitation ([3]; solvent Et-LPK): 20%

Nc1ccc(N)cc1 [p-phenylenediamine]
% solids dissolved in Bu-LGK with heat, no precipitation [3]: 5% | % solids in Bu-LGK that did not (completely) dissolve ([3]; insoluble): 25% | % solids dissolved in Et-LGK with heat, no precipitation ([3]; solvent Et-LGK, dissolved at 35-80° C., still soluble after storage at room temperature (24 hours to 5 days) where stated): 5% | % solids in Et-LPK that did not (completely) dissolve or precipitated at room temperature ([3]; solvent Et-LPK, insoluble, not completely dissolved or precipitated on room temperature storage): 5% and 1% | Average Solubility % wt./wt., column 26B ([4]; hair dye base with 7.00% Et-LGK, pH 8.5): 0.07 % wt./wt. | Average Solubility % wt./wt., column 26A ([4]; hair dye base with 7.00% Et-LGK, pH 10.2): 0.07 % wt./wt. | Average Solubility % wt./wt., column 27B ([4]; hair dye base with 7.00% Et-LPK, pH 8.5): <0.01 % wt./wt. | Average Solubility % wt./wt., second column headed 26A ([4]; hair dye base with 7.00% Et-LPK, pH 10.2): 0 % wt./wt.

CCCCOC(=O)CCC1(C)OCC(C)O1 (stereo not drawn) [n-butyl-LPK]
miscible with water to the extent of ([2]; 25° C. unless stated otherwise): about 1 part per 99 parts water | dissolves or is miscible with organic compounds to the extent of [2]: at least 20 parts of the organic compound in 80 parts

CC1=C(/C=C/C(C)=C/C=C/C(C)=C/C(=O)O)C(C)(C)CCC1 [Retinoic acid]
% solids soluble in Et-LPK at 80° C. ([3]; solvent Et-LPK, 80° C.): 1.88% | solubility in many alkyl ketal esters [3]: lower solubilities

Oc1ccc(C=Cc2cc(O)cc(O)c2)cc1 [Resveratrol]
% solids dissolved in Bu-LGK with heat, no precipitation [3]: 0.5% | % solids dissolved in Et-LGK at room temperature, no precipitation [3, 6]: 1% | % solids dissolved in Et-LPK with heat, no precipitation ([3]; solvent Et-LPK): 0.5% | solubility in many alkyl ketal esters [3]: lower solubilities

CCN(CC)C(=O)c1cccc(C)c1 [DEET, N,N-diethyl-m-toluamide]
50/50 mixture with Et-LGK ([3]; room temperature where stated): miscible | 50/50 mixture with Et-LPK ([3]; room temperature where stated): miscible | solubility in ethanol and ethyl-LPK [1]: soluble | clarity of DEET / ethyl-LGK / water mixture ([1]; 26.7 parts of DEET, 60.5 parts of ethyl-LGK, 12.8 parts of water, room temperature): clear mixture

CCCCCCCCCCCCCC(=O)OC(C)C [isopropyl myristate]
clarity of formulation ([5]; 27 parts isopropyl myristate, 9 parts of water, 9 parts of ethyl-LGK and 55 parts of ethanol): clear solution | clarity of formulation ([5]; 30 parts isopropyl myristate, 5 parts water, 5 parts ethyl-LGK and 60 parts ethanol): clear solution | clarity of formulation ([5]; 30 parts isopropyl myristate, 10 parts water, 60 parts ethanol): cloudy | clarity of formulation ([5]; no ketal, emollient level dropped to 22% at the same water level, or to 27% with an increase in ethanol): clear solution

CCOC(=O)CCC1(C)OCC(CO)O1 (stereo not drawn) [ethyl-LGK]
miscible with water ([2]; 25° C. unless stated otherwise): in all proportions | dissolves or is miscible with organic compounds to the extent of [2]: at least 20 parts of the organic compound in 80 parts

Reference: patent publication US9549886B2, “Personal care formulations containing alkyl ketal esters and methods of manufacture” (SEGETIS, INC., priority 2010, dated 2017)
